Measurements: patent US20120270778A1, “Compositions and Methods for Non-Invasive Treatment of Chronic Complications of Diabetes” (Aegis Therapeutics LLC, priority 2009, published 2012)

Legend:
[1] = in vivo, inhaled or intranasal; cited from earlier work
[2] = tested on: diabetes-induced hyperfiltration; settings: in vivo; cited from earlier work
insulin = insulin (Homo sapiens, UniProt P01308); settings: cited from earlier work
[3] = tested on: rat model of type 1 diabetes; settings: cited from earlier work
type 1 diabetes = settings: human; cited from earlier work
normal and diabetic mice = settings: repressed by insulin; cited from earlier work
islet cell = settings: cited from earlier work
[4] = Serum insulin and C-peptide levels after nasal administration of combined formulations to rats; format: in vivo
Description: Test System—Sprague Dawley rats, females; 325 grams are used throughout this study. Rats are anesthetized by isoflurane/O2 mixture. To a first and second group of three rats each is administered vehicle containing C-peptide concentration of 1 and 10 mg/mL as described in Example 1 to which is added 0.1% benzallconium chloride as a preservative. To a third and fourth group of 3 rats each is administered vehicle containing C-peptide concentration of 1 and 10 mg/mL as described above to which is added 45 mg/mL methyl-beta-cyclodextrin (Sigma-Aldrich). […]
Analysis Procedure—The serum was frozen at approximately −70° C. in pre-labeled, plastic tubes, and tightly capped, and stored at approximately −70° C. until ready for testing. […]
Solutions prepared as described in Example 3 were administered nasally to rats and tested as described in Example 2 except with the addition that serum human insulin determinations were made using the Human Insulin ELISA Kit™ from Diagnostic Systems Laboratories, Inc, Webster, Tex. The relative molar ratios of insulin to C-peptide in serum for each formulation was calculated by taking the ratio of the insulin concentration to the C-peptide concentration at a fixed time point. In Table 2 below, ratios of the concentrations of insulin and C-peptide for concentrations measured at two time points, namely 20 min. and 40 min. post nasal instillation. […]

[5] = tested on: patients with early-stage type 1 diabetic neuropathy; settings: treatment for 6 months; cited from earlier work

Sequence of insulin (P01308 25-54 limits assumed, species assumed): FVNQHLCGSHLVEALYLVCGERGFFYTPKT
Sequence of insulin (P01308 90-110 limits assumed, species assumed): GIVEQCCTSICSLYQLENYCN

## salmon calcitonin
[1]
  systemic bioavailability by intranasal route: 3%

## EVARQ
[2]
  effect on diabetes-induced hyperfiltration, renal hypertrophy and albuminuria: reduce diabetes-induced hyperfiltration, as well as renal hypertrophy and albuminuria

## Proinsulin C-Peptide (55-89), human
insulin
  effect on insulin aggregation: elicit disaggregation of insulin
[3]
  effect on neuropathy: improves neuropathy
Type 1 diabetes
  effect on diabetes-induced renal and nerve dysfunction: amelioration of diabetes-induced renal and nerve dysfunction
Normal and diabetic mice
  antithrombotic effects: exerts antithrombotic effects
Islet cell
  effect on islet cell apoptosis: decreases islet cell apoptosis
[4]
  rate of absorption relative to insulin: slightly, but not significantly, more rapidly than insulin
[2]
  effect on diabetes-induced hyperfiltration, renal hypertrophy and albuminuria: reduce diabetes-induced hyperfiltration, as well as renal hypertrophy and albuminuria
[5]
  effect on sensory nerve function: improved sensory nerve function
